Here are results for 6 compounds from patent US6348477B1, “Anti-herpesvirus compounds and methods for identifying, making and using same” (Boehringer Ingelheim(Canada) Ltd., priority 1995, dated 2002).

Structures are written as SMILES.

The test system of experiment [1] is HCMV (strain AD169). Put plainly: Inhibition of HCMV replication, ELISA assay (Hs-68 cells, p28). In kind it is cell-based, human cytomegalovirus. The following applies: Group 1 Table 1; read-out: ELISA CMV EC50. The protocol:
(§1) C) Inhibition of Human Cytomegalovirus (HCMV) replication
(§2) The effect of compounds on the replication of HCMV has been measured by using an ELISA-based assay (ELISA) and a plaque reduction assay (PRA).
Hs-68 cells (ATCC # CRL 1635) were seeded in 96 well microtiter plates at 10,000 cells/well in 100 μL of DMEM medium (Gibco Canada Inc.) supplemented with 10% fetal bovine serum (FBS, Gibco Canada Inc.). The plates were incubated for 3 days at 37° to allow the cells to reach 80-90% confluency prior to the assay.
The medium was removed from wells by aspiration. The cells then were infected at a multiplicity of infection (MOI) of 0.01 PFU/cell with 50 μL of HCMV (strain AD169, ATCC VR-538) in DMEM medium supplemented with 5% heat inactivated FBS (assay medium). The virus was allowed to adsorb to cells for 2 h at 37°. Following viral adsorption, the medium was removed from the wells by aspiration. The cells were washed twice with 200 μL of assay medium to remove unabsorbed virus. The cells were then incubated with or without 100 μL of appropriate concentrations of test reagent in assay medium. After 8 days of incubation at 37°, the extent of viral replication was determined by an ELISA assay which detects the late structural protein p28 of HCMV.
Eight days after infection, the medium was aspirated from the wells. Non-specific binding sites were blocked by adding 200 μL of phosphate buffered saline containing 1% (w/v) bovine serum albumin (blocking buffer) to each well and incubating the plates for 30 min at room temperature. After removal of the blocking buffer by aspiration, the cells were fixed with 100 μL of cold ethanol-acetone solution (95:5) per well. The plates were placed at −20° for 30 min. The plates were washed 4 times with phosphate buffered saline containing 0.05% (v/v) polyoxyethylene sorbitan monolaurate (Tween 20®). Thereafter, 100 μL of mAb UL99 (Advanced Biotechnologies Inc., #13-130-100) recognizing HCMV protein p28 was added to each wells and plates were incubated for 2 h at room temperature. The plates were washed four times with 200 μL of the above-noted phosphate buffered saline/Tween-20® solution. The cells were then incubated with 100 μL of sheep anti-mouse IgGγ horseradish peroxidase conjugated for 2 h at room temperature. The plates were then washed four times with 200 μL of above-noted phosphate buffered saline/Tween-20®solution. Thereafter, 100 μL of ortho phenylenediamine dihydrochloride (OPD, Gibco Canada Inc.) solution was added to each well and the plates were agitated on a microplate shaker for 30 min in the dark. Color development was monitored at 450 nm using a microplate spectrophotometer.
The SAS program was used to calculate the % inhibition of viral replication and to generate EC50 values.
The EC50 values obtained according to this assay method for certain thiazolylphenyl derivatives of this invention are listed in the following tables under the heading ELISA CMV.
(In general: ELISA stands for enzyme-linked immunosorbent assay.)

Experiment [2] has as its target T1, HSV-1 helicase-primase (Human herpesvirus 1, UniProt P10189+P10236).
T1 construct: made in house; host or cells: Sf21 insect cells triply infected with recombinant baculoviruses
In words: HSV-1 DNA-dependent ATPase assay (inhibition of HSV-1 helicase-primase). Type of experiment: biochemical. The following applies: Group 1 Table 1. From the text:
A) HSV-1 DNA-Dependent ATP Assay (an in Vitro Assay Based on the Inhibition of HSV-1 Helicase-primase).
a) Preparation of enzyme: HSV-1 helicase-primase holoenzyme was produced in triply infected Sf21 cells using recombinant baculoviruses expressing the UL5, UL8 and UL52 helicase-primase subunits, as described by S. Dracheva et al., J. Biol. Chem. 1995, 270, 14148. The crude enzyme was purified by ammonium sulfate precipitation, Source 15Q® chromatography and Sephacryl® S-300 HR gel filtration (both purification systems can be obtained from Pharmacia Biotech Inc., Montreal, Quebec, Canada), see S. Dracheva et al., supra.
b) Assay: The DNA-dependent ATPase assay, described by J. J. Crute et al., Nucleic Acids Res. 1988, 16, 6585, was modified and used to evaluate the capability of the compounds of Group 1-formula 1 to inhibit HSV-1 helicase-primase activity. The reaction mixtures (80 μL each) contained 40 mM 4-(2-hydroxyethyl)-1-piperazineethanesulfonic acid (HEPES, pH 7.5), 10% (v/v) glycerol, 5.5 mM MgCl2, 1 mM DL-dithiothreitol (DTT), 50 μg/mL acetylated bovine serum albumin, 3.3% (v/v) DMSO, 4 mM ATP, 25 μM single-stranded M13 DNA hybridized to double-tailed 68-mer oligonucleotide and 3 μg/mL HSV-1 helicase-primase. After incubation for 20 min at 34°, formation of inorganic phosphate from hydrolysis of ATP was monitored spectrophotometrically at 650 nm using acidic ammonium molybdate/malachite green reagent, P. A. Lanzetta et al., Anal. Biochem. 1979, 100, 95. DNA-dependent ATPase activity was calculated from the net absorbance change in the presence and absence of inhibition.

Experiment [3] has as its system HCMV (strain AD169). In words: Inhibition of HCMV replication, plaque reduction assay (PRA, Hs-68 cells). Particulars: Group 1 Table 1; read-out: PRA CMV EC50. Type of experiment: cell-based, human cytomegalovirus. The protocol: as §1, §2
Hs-68 cells ( ATCC # CRL 1635) were seeded in 12-well plates at 83,000 cells/well in 1 mL of DMEM medium (Gibco Canada Inc.) supplemented with 10% fetal bovine serum (FBS, Gibco Canada Inc.). The plates were incubated for 3 days at 37° to allow the cells to reach 80-90% confluency prior to the assay.
The medium was removed from the cells by aspiration. The cells were then infected with approximately 50 PFU of HCMV (strain AD169, ATCC VR-538) in DMEM medium supplemented with 5% inactivated FBS (assay medium). The virus was allowed to adsorb to cells for 2 h at 37°. Following viral adsorption, the medium was removed from the wells by aspiration. The cells were then incubated with or without 1 mL of appropriate concentrations of test reagent in assay medium. After 4 days of incubation at 37°, the medium was exchanged with fresh medium containing test compound and 4 days later the cells were fixed with 1% aqueous formaldehyde and stained with a 2% crystal violet solution in 20% ethanol in water. Microscopic plaques were counted using a stereomicroscope. Drug effects were calculated as a percent reduction in the number of plaques in the presence of each drug concentration compared to the number observed in the absence of drug. Ganciclovir was used as a positive control in all experiments.
The EC50 values obtained according to this assay for certain thiazolyl derivatives of this invention are listed in the following tables under the heading PRA CMV.
Background: Plaques are areas of infected cells; plaque reduction assays count them against a control.

Experiment [4] has as its system HSV-1 strain F or KOS. In words: Inhibition of herpes simplex virus (HSV-1) replication in cell culture (BHK-21 cells, glycoprotein C ELISA). In kind it is cell-based. Particulars: Group 1 Table 1. Here is the method:
B) Inhibition of Herpes Simplex Virus (HSV-1) Replication in Cell Culture
Assay: BHK-21 cells clone 13 (ATCC CCL10) were incubated for two days in 850 cm^2 roller bottles (2×10^7 cells/bottle) with α-MEM medium (Gibco Canada Inc., Burlington, Ontario, Canada) supplemented with 8% (v/v) fetal bovine serum (FBS, Gibco Canada, Inc.). The cells were trypsinized and then 3,000 cells in 100 μL of fresh medium were transferred into each well of a 96-well microtiter plate. The cells were incubated at 37° for a period of 3 days to reach a density of 50,000 cells per well. The cells were washed twice with 100 μL of α-MEM supplemented with 2% heat inactivated FBS and incubated for 1-2 hours in 100 μL of the same medium.
Thereafter, the cells were infected with HSV-1 strain F or KOS (multiplicity of infection=0.05 PFU/cell) in 50 μL of α-MEM supplemented with 2% heat inactivated FBS. Following one hour of virus absorption at 37°, the medium was removed and the cells were washed with α-MEM supplemented with 2% heat inactivated FBS (2×100 μL). The cells were incubated with or without 100 μL of the appropriate concentration of test reagent in α-MEM medium supplemented with 2% heat inactivated FBS. After 24 hours of incubation at 37°, the extent of viral replication was determined by an ELISA assay; for instance, the following assay that detects the late glycoprotein C of HSV-1.
Cells were fixed in the microtiter plate with 100 μL of 0.063% glutaraldehyde in phosphate buffered saline for 30 min at room temperature. The microtiter plate was then washed once with casein blocking solution and blocked with 200 μL of the same solution for one hour at room temperature. Thereafter, 100 μL of mAb C11 recognizing the glycoprotein C of HSV-1 (see E. Trybala et al., Journal of General Virology, 1994, 75, 743) was added to each well for two hours at room temperature. The plate was washed three times with phosphate buffered saline containing 0.05% polyoxyethylene (20) sorbitan monooleate. The cells were incubated with 100 μL of sheep anti-mouse IgG horseradish peroxidase for one hour at room temperature in the dark.
The plate was washed three times with 200 μL of the above-noted phosphate buffer saline preparation, and then once with 0.1 M sodium citrate (pH 4.5). Thereafter, 100 μL of orthophenylenediamine dihydrochloride (OPD, Gibco, Canada Inc.) was added to each well. The plate was agitated on a microplate shaker for 30 min in the dark. Color development was monitored at 450 nm using a microplate spectrophotometer.
SAS was used to calculate % inhibition of viral replication and to generate EC50 values.

Experiment [5] has as its system HSV-1 acyclovir-resistant mutant strain dlsptk. Put plainly: Acyclovir-resistant HSV-1 dlsptk cutaneous infection in immunodeficient nu/nu mice, oral. Type of experiment: in vivo. The following applies: 100 mg/kg/day oral, tid for 10 days (FIG. 3). The protocol: (§3) Animals were cutaneously inoculated with 10^7 PFU of HSV-1 acyclovir resistant mutant viruses. The resulting cutaneous lesions were scored according to a subjective scoring system. The compound of Group 1 (Entry No. 29 in table 1) was administered orally (gavage) in an acidified vehicle (0.033 N aqueous HCl, tid for 10 days). Animals were similarly treated with acyclovir in 0.033 N aqueous HCl or only with the vehicle (0.033 N aqueous HCl). […] The dose-dependent effect of treatment with Entry No. 29 at 25 mg/kg/day (-♦-), 50 mg/kg/day (-▴-), 75 mg/kg/day (-□-), 100 mg/kg/day (-●-) or 125 mg/kg/day (-▪-), compared to treatment with vehicle alone (-∘-), is shown in FIG. 2. The ED50 of Entry No. 29 was about 60 mg/kg/day. Similar experiments were done using the HSV-1 acyclovir-resistant mutant strain dlsptk (FIGS. 3 and 4). […] The dose-dependent effect of treatment with Entry No. 29 at 25 mg/kg/day (-♦-), 50 mg/kg/day (▴-), 75 mg/kg/day (-□-), 100 mg/kg/day (-●-) or 125 mg/kg/day (-▪-), compared to treatment with vehicle alone (-∘-), is shown in FIG. 4. The acyclovir-resistant HSV-1 strains, PAA^r5 and dlsptk, have been described by P. A. Furman et al., J. Virol., 1981, 40, 936 and by D. M. Coen et al., Proc. Natl. Acad. Sci., 1989, 86, 4736, respectively.

The subject of experiment [6] is HSV-1 acyclovir-resistant mutant strain PAA^r5. Put plainly: Acyclovir-resistant HSV-1 PAAr5 cutaneous infection in immunodeficient nu/nu mice, oral. In kind it is in vivo. Particulars: 100 mg/kg/day oral, tid for 10 days (FIG. 1). The protocol:
as §3

T1 sequence (P10189 whole entry): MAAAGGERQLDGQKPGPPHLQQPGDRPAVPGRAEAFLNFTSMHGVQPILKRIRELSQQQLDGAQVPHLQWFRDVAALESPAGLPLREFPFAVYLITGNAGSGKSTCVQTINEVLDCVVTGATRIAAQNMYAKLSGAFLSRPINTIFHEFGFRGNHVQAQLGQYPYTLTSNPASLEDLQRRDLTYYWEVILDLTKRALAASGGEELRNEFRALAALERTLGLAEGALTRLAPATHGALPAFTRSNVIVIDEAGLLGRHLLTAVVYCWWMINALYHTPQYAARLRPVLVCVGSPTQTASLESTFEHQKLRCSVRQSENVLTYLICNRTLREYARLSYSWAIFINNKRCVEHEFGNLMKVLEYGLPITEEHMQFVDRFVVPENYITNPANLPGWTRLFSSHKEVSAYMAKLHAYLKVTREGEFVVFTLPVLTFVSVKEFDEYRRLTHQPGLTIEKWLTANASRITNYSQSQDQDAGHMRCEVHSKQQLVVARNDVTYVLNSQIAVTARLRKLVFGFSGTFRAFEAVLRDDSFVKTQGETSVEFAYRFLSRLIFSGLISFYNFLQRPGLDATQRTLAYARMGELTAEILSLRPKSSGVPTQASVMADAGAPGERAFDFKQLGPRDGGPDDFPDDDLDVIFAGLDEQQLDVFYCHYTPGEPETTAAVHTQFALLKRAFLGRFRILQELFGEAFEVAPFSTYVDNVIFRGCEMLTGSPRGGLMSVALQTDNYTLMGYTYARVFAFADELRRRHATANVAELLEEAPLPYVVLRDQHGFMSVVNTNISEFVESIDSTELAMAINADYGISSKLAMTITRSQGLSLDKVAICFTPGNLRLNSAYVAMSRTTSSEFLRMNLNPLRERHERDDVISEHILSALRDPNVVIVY
T1 sequence (P10192 whole entry, further chain): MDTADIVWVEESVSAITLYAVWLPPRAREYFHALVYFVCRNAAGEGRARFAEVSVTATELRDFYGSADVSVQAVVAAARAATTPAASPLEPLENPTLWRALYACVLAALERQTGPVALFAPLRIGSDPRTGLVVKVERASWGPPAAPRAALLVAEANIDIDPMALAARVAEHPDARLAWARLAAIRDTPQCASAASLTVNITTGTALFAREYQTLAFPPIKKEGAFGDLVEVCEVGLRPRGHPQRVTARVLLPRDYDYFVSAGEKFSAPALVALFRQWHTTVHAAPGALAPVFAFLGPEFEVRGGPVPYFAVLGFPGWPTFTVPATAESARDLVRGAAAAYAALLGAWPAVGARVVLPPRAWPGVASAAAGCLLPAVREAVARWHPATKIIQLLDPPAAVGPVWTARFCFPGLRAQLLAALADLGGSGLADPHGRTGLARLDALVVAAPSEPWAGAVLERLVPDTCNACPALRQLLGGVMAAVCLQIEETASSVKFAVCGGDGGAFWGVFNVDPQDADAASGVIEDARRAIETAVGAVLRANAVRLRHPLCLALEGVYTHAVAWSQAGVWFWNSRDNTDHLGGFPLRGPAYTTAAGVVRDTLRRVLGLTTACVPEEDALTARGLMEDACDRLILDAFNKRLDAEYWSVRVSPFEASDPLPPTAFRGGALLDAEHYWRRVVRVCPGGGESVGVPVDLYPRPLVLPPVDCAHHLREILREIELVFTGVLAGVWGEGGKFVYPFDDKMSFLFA
T1 sequence (P10236 whole entry): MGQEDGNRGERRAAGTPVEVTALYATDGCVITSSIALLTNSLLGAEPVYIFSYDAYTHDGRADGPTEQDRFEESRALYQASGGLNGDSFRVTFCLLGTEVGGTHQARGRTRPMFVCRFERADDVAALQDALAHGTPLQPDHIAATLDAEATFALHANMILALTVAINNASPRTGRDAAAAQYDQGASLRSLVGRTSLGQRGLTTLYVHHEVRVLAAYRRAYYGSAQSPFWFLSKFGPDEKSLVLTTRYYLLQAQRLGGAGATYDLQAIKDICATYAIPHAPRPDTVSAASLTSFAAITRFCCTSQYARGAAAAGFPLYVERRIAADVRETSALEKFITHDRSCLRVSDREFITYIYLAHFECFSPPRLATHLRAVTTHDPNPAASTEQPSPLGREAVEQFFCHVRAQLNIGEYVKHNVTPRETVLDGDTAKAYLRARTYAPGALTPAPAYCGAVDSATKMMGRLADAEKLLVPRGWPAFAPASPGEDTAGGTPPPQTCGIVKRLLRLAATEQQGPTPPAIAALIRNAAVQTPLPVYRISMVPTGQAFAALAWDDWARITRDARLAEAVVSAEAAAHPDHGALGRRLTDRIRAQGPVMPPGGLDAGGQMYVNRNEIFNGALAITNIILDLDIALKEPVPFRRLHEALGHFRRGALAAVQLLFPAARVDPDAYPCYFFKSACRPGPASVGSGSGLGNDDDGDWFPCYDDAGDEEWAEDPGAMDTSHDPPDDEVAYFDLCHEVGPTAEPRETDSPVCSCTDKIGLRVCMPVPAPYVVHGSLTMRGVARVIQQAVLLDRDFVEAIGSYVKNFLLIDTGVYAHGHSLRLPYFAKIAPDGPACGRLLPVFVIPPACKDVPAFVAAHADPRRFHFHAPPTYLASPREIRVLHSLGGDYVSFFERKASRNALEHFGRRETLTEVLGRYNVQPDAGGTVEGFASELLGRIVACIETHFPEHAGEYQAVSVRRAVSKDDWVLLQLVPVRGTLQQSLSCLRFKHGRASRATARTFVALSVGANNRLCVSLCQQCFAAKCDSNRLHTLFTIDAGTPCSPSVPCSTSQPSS

Usually EC50 stands for the midpoint of the concentration-response curve. For orientation: IC50 means the concentration that gives 50% inhibition. A higher IC50 goes with lower potency. In the case of `CC(c1ccccc1)N(CC(=O)Nc1ccc(-c2csc(N)n2)cc1)C(=O)C1CCCCC1` (stereo not drawn) [Example 53], the results for the EC50 in experiment [1], in experiment [3] and in experiment [4] were 3200 nM, 12000 nM and 3 nM, respectively. Half-maximal inhibition in experiment [2] (IC50) was put at 38 nM.

As to `CC(c1ccccc1)N(CC(=O)Nc1ccc(-c2csc(N)n2)cc1)C(=O)C1CCCCC1` (stereo not drawn) [Example 52], the half-maximal effective concentration (EC50) in experiment [1] amounted to 1300 nM; in experiment [3] it was 6000 nM; in experiment [4] it was 13 nM. The compound also showed a 50% inhibitory concentration (IC50) in experiment [2] of 87 nM.

On to `CC(c1ccccc1)N(CC(=O)Nc1ccc(-c2csc(N)n2)cc1)C(=O)OC(C)(C)C` (stereo not drawn) [Example 88], for which the 50% effective concentration (EC50) in experiment [1] is more than 47000 nM; in experiment [4], 1200 nM. Half-maximal inhibition in experiment [2] (IC50) was put at 2400 nM.

Turning to `CC(c1ccccc1)N(CC(=O)Nc1ccc(-c2csc(N)n2)cc1)C(=O)OC(C)(C)C` (stereo not drawn) [Example 89], the EC50 in experiment [1] worked out at 900 nM; in experiment [3] it was 38000 nM; in experiment [4], 36 nM. In experiment [2], this compound had an IC50 of 98 nM.

On to `Nc1nc2c(ncn2COCCO)c(=O)[nH]1` [acyclovir], for which the “effect on cutaneous lesions” value in experiment [5] and in experiment [6] was “no effect” throughout.

As to `Nc1nc(-c2ccc(NC(=O)CN(CC3CCCCC3)C(=O)c3cccnc3)cc2)cs1` [Example 64], the 50% effective concentration (EC50) in experiment [1] came to 750 nM; in experiment [3], 20000 nM; in experiment [4] it was 1700 nM. The same compound showed an IC50 in experiment [2] of 2500 nM.
